Data published in publication PMC8776995 (Frontiers in Chemistry, 2022).
Where “and” joins values, the source holds several entries; their conditions need not be identical. Equal values may be shown once. Read-outs that look alike come from different tables or passages of the source.

What was measured:
A549 cells = assay: CCK-8 antiproliferation assay, A549; conditions: for Inhibitory efficacy: A549 cells
[1] = test system: EGFR phosphorylation (Tyr1068) in PC-9 cells; assay: Western blot, p-EGFR/EGFR in PC-9; conditions: for p-EGFR/EGFR: band density ratio; for p-EGFR/EGFR relative to DMSO: ratio normalised to DMSO = 1
Protocol: (§1) We also performed western blot analysis to evaluate the impact of e4 and e12 on EGFR signaling in PC-9 and H460 cells.
(§2) H460 cells were seeded in six-well plates with serum-free medium overnight, and then treated complete medium containing 0.1% DMSO, various concentrations (0.1, 1 and 10 μM) of either compound e4 or e12 for 2 h, respectively. […] Then the H460 cells were treated with complete medium containing EGF (10 ng/ml) for 5 min. Then the cells were harvested and washed with PBS, centrifuged, resuspended in 100–200 μl of RIPA lysis buffer containing Protease and Phosphatase Inhibitor Cocktail (1X), and then centrifuged for 5 min at 12,000 rpm at 4°C. The supernatant was used for protein analysis. […] Then the membrane was washed 5 min (X3) and incubated at 1:3,000 dilution of anti-rabbit secondary antibodies or 1:1,000 dilution of anti-mouse secondary antibodies for 1 h at RT. After washing with TBST 5 min (X3), protein bands were developed by chemiluminescence. The protein levels were quantified by the gray values of the bands in the resulting images by ImageJ, and the control group was used as the standard. […] The PC-9 cells were harvested and analyzed as above.

PC-9 cells = assay: Flow cytometry detection for cell cycle, PC-9; assay type: cell-based, human; conditions: for G0/G1 / G2/M / S: single repeats (Repeat 1-3)
Protocol: To investigate the effects of compounds e4 and e12 on various phases of the cell cycle, PC-9 cells were treated with compound e4 or e12 of various concentrations for 24 h, and H460 cells were treated with compound e4 or e12 of various concentrations for 12 h.
PC-9 or H460 (2 × 10^5–3 × 10^5/well) cells were seeded in six-well plates for 24 h, and then treated with 0.1% DMSO (as control), various concentrations of either compound e4 or e12 for 24 h (PC-9) or 12 h (H460), respectively. The treated cells were harvested, washed with PBS, and then stained using the cell-cycle staining kit according to the manufacturer’s manual. The distribution of cell-cycle phases with different DNA contents was determined by flow cytometry (BD LSRFortessa™ Flow Cytometer) and analyzed using ModFit LT software.

[2] = test system: AKT phosphorylation (S473) in H460 cells; assay: Western blot, p-AKT/AKT in H460; conditions: for p-AKT/AKT: band density ratio; for p-AKT/AKT relative to DMSO: ratio normalised to DMSO
Protocol: as §1, §2

wild-type EGFR = wild-type EGFR (Homo sapiens, UniProt P00533); assay: EGFR kinase assay (ELISA); conditions: for A450: raw ELISA absorbance
wild-type EGFR, sequence (P00533 25-1210): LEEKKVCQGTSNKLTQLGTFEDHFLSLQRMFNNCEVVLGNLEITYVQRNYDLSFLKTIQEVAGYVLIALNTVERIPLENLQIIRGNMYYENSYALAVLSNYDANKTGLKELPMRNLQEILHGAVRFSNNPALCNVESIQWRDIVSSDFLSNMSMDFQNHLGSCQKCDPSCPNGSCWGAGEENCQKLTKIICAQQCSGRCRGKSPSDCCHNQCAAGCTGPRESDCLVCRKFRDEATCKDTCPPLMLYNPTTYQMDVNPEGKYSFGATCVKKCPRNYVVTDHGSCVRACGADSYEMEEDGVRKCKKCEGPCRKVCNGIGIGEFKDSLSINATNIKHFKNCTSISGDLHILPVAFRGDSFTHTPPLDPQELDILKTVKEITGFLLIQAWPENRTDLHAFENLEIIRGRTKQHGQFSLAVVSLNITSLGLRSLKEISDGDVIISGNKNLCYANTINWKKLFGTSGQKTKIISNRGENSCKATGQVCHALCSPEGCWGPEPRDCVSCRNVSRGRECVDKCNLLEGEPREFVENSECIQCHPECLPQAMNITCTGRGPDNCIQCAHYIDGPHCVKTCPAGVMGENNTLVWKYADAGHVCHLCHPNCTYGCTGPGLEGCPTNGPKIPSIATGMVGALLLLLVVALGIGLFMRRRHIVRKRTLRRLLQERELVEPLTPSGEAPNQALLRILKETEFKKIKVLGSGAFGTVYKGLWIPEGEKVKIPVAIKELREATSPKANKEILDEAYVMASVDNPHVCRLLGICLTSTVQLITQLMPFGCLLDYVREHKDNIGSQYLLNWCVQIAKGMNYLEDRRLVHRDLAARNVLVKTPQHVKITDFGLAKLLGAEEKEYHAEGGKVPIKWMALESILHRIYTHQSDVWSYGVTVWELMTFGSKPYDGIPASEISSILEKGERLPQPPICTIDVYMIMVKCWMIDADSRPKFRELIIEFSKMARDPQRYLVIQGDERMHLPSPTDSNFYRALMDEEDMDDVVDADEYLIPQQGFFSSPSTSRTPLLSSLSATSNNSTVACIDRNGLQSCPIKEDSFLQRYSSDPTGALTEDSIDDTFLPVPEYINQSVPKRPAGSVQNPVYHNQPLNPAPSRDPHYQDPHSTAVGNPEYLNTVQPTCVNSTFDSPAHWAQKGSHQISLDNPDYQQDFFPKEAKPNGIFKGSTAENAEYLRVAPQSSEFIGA
Protocol: The kinase enzyme of EGFR was purchased from Carna Bioscience (Kobe, Japan). A total of 10 ng/ml anti phosphotyrosine (PY713) antibody (abcam, Cambridge Science Park, United Kingdom) was precoated in 96-well ELISA plates. […] Then, a total of 3 μmol/L ATP was added and the reaction was continued for 2 h. […] After incubation, the wells were washed with PBS and then incubated with horseradish peroxidase (HRP)-conjugated streptavidin. The wells were visualized using 3,3′,5,5′-tetramethylbenzidine (TMB), and chromogenic reaction was ended with 2 mol/L H2SO4, the absorbance was read with a multimode plate reader (PerkinElmer, United States) at 450 nm.

H1975 cells = assay: CCK-8 antiproliferation assay, H1975; conditions: for Inhibitory efficacy: H1975 cells
Protocol: The compounds were dissolved in DMSO to make a 20 μM stock solution and diluted to the concentration of working solutions with complete growth medium before administration.
Cells were seeded in 96-well plates: 3,000–5,000 cells/well in 100 ul. One day after seeding, the test compounds at concentration between 1.0 and 16.0 μ M or 0.1% DMSO (as control) were added to cells in triplicate. 48 h later, CCK-8 was added and incubated the plate for 1–4 h in the incubator. The absorbance at 450 nm were measured using a microplate reader (Bio-Tek).

[3] = test system: AKT phosphorylation (S473) in PC-9 cells; assay: Western blot, p-AKT/AKT in PC-9; conditions: for p-AKT/AKT: band density ratio; for p-AKT/AKT relative to DMSO: ratio normalised to DMSO = 1
Protocol: as §1, §2

[4] = 1uM, given as fraction, Repeat 1-3
[5] = 2uM, given as fraction, Repeat 1-3
[6] = 4uM, given as fraction, Repeat 1-3
[7] = 8uM, given as fraction, Repeat 1-3
[8] = 16uM, given as fraction, Repeat 1-3

IC50 (A549 cells; Homo sapiens, A549, 48 h, read-out: IC50 (μM) A549, CCK-8, 48 h, average ± SD of three independent experiments): < 10 µM | IC50 (A549 cells; read-out: IC50 (μM) A549, CCK-8, 48 h, average ± SD of three independent experiments): 5.91 ± 0.73 µM | IC50 (wild-type EGFR; IC50 (μM) EGFR, ELISA, 3 μmol/L ATP): 1.76 µM | inhibition at 100 fM (wild-type EGFR; concentration 0.0001 nM (reference for normalisation), one value per replicate column): 0% | inhibition at 30 pM (wild-type EGFR; concentration 0.03 nM, one value per replicate column): 8.63% | Inhibition (wild-type EGFR; concentration 0.03 nM, one value per replicate column, 3e-05 µM): 6.151 | inhibition at 0.0003 µM (wild-type EGFR; concentration 0.3 nM, one value per replicate column): 9.04% | Inhibition (wild-type EGFR; concentration 0.3 nM, one value per replicate column, 0.0003 µM): 14.0873 | inhibition at 0.003 µM (wild-type EGFR; concentration 3 nM, one value per replicate column): 9.24% | Inhibition (wild-type EGFR; concentration 3 nM, one value per replicate column, 0.003 µM): 16.0714 | inhibition at 0.03 µM (wild-type EGFR; concentration 30 nM, one value per replicate column): 16.1% | Inhibition (wild-type EGFR; concentration 30 nM, one value per replicate column, 0.03 µM): 18.4524 | inhibition at 0.3 µM (wild-type EGFR; concentration 300 nM, one value per replicate column): 20.3% | Inhibition (wild-type EGFR; concentration 300 nM, one value per replicate column, 0.3 µM): 32.1429 | inhibition at 3 µM (wild-type EGFR; concentration 3000 nM, one value per replicate column): 50.8% | Inhibition (wild-type EGFR; concentration 3000 nM, one value per replicate column, 3 µM): 50.5952 | inhibition at 30 µM (wild-type EGFR; concentration 30000 nM, one value per replicate column): 85.5% | Inhibition (wild-type EGFR; concentration 30000 nM, one value per replicate column, 30 µM): 85.9127 | A450 (wild-type EGFR; concentration 0.0001 nM): 0.655 and 0.663 | A450 (wild-type EGFR; concentration 0.03 nM): 0.612 and 0.632 | A450 (wild-type EGFR; concentration 0.3 nM): 0.61 and 0.592 | A450 (wild-type EGFR; concentration 3 nM): 0.609 and 0.582 | A450 (wild-type EGFR; concentration 30 nM): 0.575 and 0.57 | A450 (wild-type EGFR; concentration 300 nM): 0.554 and 0.501 | A450 (wild-type EGFR; concentration 3000 nM): 0.402 and 0.408 | A450 (wild-type EGFR; concentration 30000 nM): 0.229 and 0.23 | IC50 (H1975 cells; Homo sapiens, NCI-H1975, 48 h, read-out: IC50 (μM) H1975, CCK-8, 48 h, average ± SD of three independent experiments): < 10 µM | IC50 (H1975 cells; read-out: IC50 (μM) H1975, CCK-8, 48 h, average ± SD of three independent experiments): 7.25 ± 0.45 µM
SMILES: COCCOc1cc2ncnc(Nc3cccc(-c4cn(-c5ccc(C)cc5)nn4)c3)c2cc1OCCOC [e12, [6,7-Bis-(2-methoxy-ethoxy)-quinazolin-4-yl]-[3-(1-p-tolyl-1H-[1,2,3]triazol-4-yl)-phenyl]-amine]
Inhibitory efficacy (A549 cells; [4]): 0.1461 and 0.1139 | Inhibitory efficacy (A549 cells; [5]): 0.3261 and 0.1967 | Inhibitory efficacy (A549 cells; [6]): 0.4378 and 0.3806 | Inhibitory efficacy (A549 cells; [7]): 0.5646 and 0.5114 | Inhibitory efficacy (A549 cells; [8]): 0.7887 and 0.7821 | inhibition at 1 µM (A549 cells; Homo sapiens, A549, read-out: Inhibitory efficacy, A549 cells, 1uM, given as fraction, Repeat 1-3): 9.61% | inhibition at 2 µM (A549 cells; Homo sapiens, A549, read-out: Inhibitory efficacy, A549 cells, 2uM, given as fraction, Repeat 1-3): 26.8% | inhibition at 4 µM (A549 cells; Homo sapiens, A549, read-out: Inhibitory efficacy, A549 cells, 4uM, given as fraction, Repeat 1-3): 37.9% | inhibition at 8 µM (A549 cells; Homo sapiens, A549, read-out: Inhibitory efficacy, A549 cells, 8uM, given as fraction, Repeat 1-3): 51.9% | inhibition at 16 µM (A549 cells; Homo sapiens, A549, read-out: Inhibitory efficacy, A549 cells, 16uM, given as fraction, Repeat 1-3): 78.5% | p-EGFR/EGFR ([1]; PC-9, 0.1 uM): 1.065 | p-EGFR/EGFR relative to DMSO ([1]; PC-9, 0.1 uM): 0.9518 | p-EGFR/EGFR ([1]; PC-9, 1 uM): 0.9522 | p-EGFR/EGFR relative to DMSO ([1]; PC-9, 1 uM): 0.8509 | p-EGFR/EGFR ([1]; PC-9, 10 uM): 0.4177 | p-EGFR/EGFR relative to DMSO ([1]; PC-9, 10 uM): 0.3732 | phosphorylation of EGFR (western blot) ([1]; PC-9, especially at 10 μM): suppressed | G0/G1 (PC-9 cells; PC-9, 4uM): 56.16 and 54.85 and 57.63 | G2/M (PC-9 cells; PC-9, 4uM): 17.84 and 17.98 and 15.19 | S (PC-9 cells; PC-9, 4uM): 26.01 and 27.17 and 27.19 | G0/G1 (PC-9 cells; PC-9, 8uM): 53.08 and 54.06 and 56.12 | G2/M (PC-9 cells; PC-9, 8uM): 20.06 and 19.34 and 16.67 | S (PC-9 cells; PC-9, 8uM): 26.86 and 26.6 and 27.1 | G0/G1 (PC-9 cells; PC-9, 12uM): 56.88 and 57.79 and 60.22 | G2/M (PC-9 cells; PC-9, 12uM): 21.27 and 20.78 and 17.44 | S (PC-9 cells; PC-9, 12uM): 21.85 and 21.43 and 22.34 | percentage of cells in the G0/G1 phase (PC-9 cells; PC-9, various concentrations, 24 h): induced higher percentages | p-AKT/AKT ([2]; H460, 0.1 uM): 1.267 | p-AKT/AKT relative to DMSO ([2]; H460, 0.1 uM): 1.274 | p-AKT/AKT ([2]; H460, 1 uM): 0.9055 | p-AKT/AKT relative to DMSO ([2]; H460, 1 uM): 0.9102 | p-AKT/AKT ([2]; H460, 10 uM): 0.594 | p-AKT/AKT relative to DMSO ([2]; H460, 10 uM): 0.5972 | phosphorylation of AKT (western blot) ([2]; H460, especially at 10 μM): suppressed | Inhibitory efficacy (H1975 cells; [4]): 0.1624 and 0.1374 | Inhibitory efficacy (H1975 cells; [5]): 0.2034 and 0.2177 | Inhibitory efficacy (H1975 cells; [6]): 0.2052 and 0.2481 | Inhibitory efficacy (H1975 cells; [7]): 0.4158 and 0.4836 | Inhibitory efficacy (H1975 cells; [8]): 0.8709 and 0.8763 | inhibition at 1 µM (H1975 cells; Homo sapiens, NCI-H1975, read-out: Inhibitory efficacy, H1975 cells, 1uM, given as fraction, Repeat 1-3): 18.4% | inhibition at 2 µM (H1975 cells; Homo sapiens, NCI-H1975, read-out: Inhibitory efficacy, H1975 cells, 2uM, given as fraction, Repeat 1-3): 28.9% | inhibition at 4 µM (H1975 cells; Homo sapiens, NCI-H1975, read-out: Inhibitory efficacy, H1975 cells, 4uM, given as fraction, Repeat 1-3): 23.2% | inhibition at 8 µM (H1975 cells; Homo sapiens, NCI-H1975, read-out: Inhibitory efficacy, H1975 cells, 8uM, given as fraction, Repeat 1-3): 40.7% | inhibition at 16 µM (H1975 cells; Homo sapiens, NCI-H1975, read-out: Inhibitory efficacy, H1975 cells, 16uM, given as fraction, Repeat 1-3): 87.6% | p-AKT/AKT ([3]; PC-9, 0.1 uM): 0.5916 | p-AKT/AKT relative to DMSO ([3]; PC-9, 0.1 uM): 0.5679 | p-AKT/AKT ([3]; PC-9, 1 uM): 0.4098 | p-AKT/AKT relative to DMSO ([3]; PC-9, 1 uM): 0.3934 | p-AKT/AKT ([3]; PC-9, 10 uM): 0.7398 | p-AKT/AKT relative to DMSO ([3]; PC-9, 10 uM): 0.7102 | phosphorylation of AKT (western blot) ([3]; PC-9, especially at 10 μM): suppressed
